From patent US20200325178A1, “PEPTIDE NUCLEIC ACID MOLECULES FOR TREATMENT OF GRAM POSITIVE BACTERIAL INFECTION” (priority 2017, published 2020)

Columns and labels:
S. aureus MSSA strains = experiment: Bioscreen-C dose response growth curve of MSSA over 24 hours; assay type: cell-based, Staphylococcus aureus; settings: HCl salts, doses from 100 μg downwards, 10 mM sodium bicarbonate buffer pH-7.4, OD 420-580 nm
Procedure: (§1) Bioscreen-C instrument was used to detect the MIC and MBC of PNA-CPP derivatives against S. aureus MSSA strains. Different concentrations of PNA-CPP derivatives were prepared in 10 mM of sodium bicarbonate buffer pH-7.4 and added to ˜5.0 Log 10 CFUs in a Honey comb Bioscreen-C plate.
Compound I-V were assayed against MSSA. FIG. 12-16 show a dose response growth curve of MSSA in presence of increasing concentrations of Compound I-HCl (FIG. 12), Compound II-HCl (FIG. 13), Compound III-HCl (FIG. 14), Compound IV-HCl (FIG. 15), and Compound V-HCl (FIG. 16), determined in a Bioscreen-C spectrophotometer.

[1] = system: MSSA clinical isolates and ATCC strains; experiment: MIC and MBC against MSSA clinical isolates and ATCC strains; assay type: cell-based, Staphylococcus aureus; parameters: MIC: unit not given here
Procedure: as §1
After the growth curve assays, the number of colony forming units (CFU) were counted to determine the MIC and MBC of each PNA-CPP derivative against MSSA.
(§2) Minimum inhibitory concentration (MIC) analyses were performed as described in Clinical and Laboratory Standards Institute, Methods for Dilution Antimicrobial Susceptibility Tests for Bacteria that Grow Aerobically, 7th ed.; Approved Standard M7-A7; CLSI: Wayne, Pa., USA, 2006; volume 26, No. 2. Vancomycin and Oxacillin were used as controls. MIC was determined as the lowest concentration of agent that inhibits bacterial growth detected at A420-580 nm.

[2] = system: MRSA clinical isolates and ATCC strains; experiment: MIC and MBC against MRSA clinical isolates and ATCC strains; assay type: cell-based, Staphylococcus aureus; parameters: unit not given here
Procedure: (§3) Bioscreen-C instrument was used to detect the MIC and MBC of PNA-CPP derivatives against S. aureus MRSA strains. Different concentration of PNA-CPP derivatives were prepared in 10 mM of sodium bicarbonate buffer pH-7.4 and added to ˜5.0 Log 10 CFUs in a Honey comb Bioscreen-C plate.
After the growth curve assays, the number of colony forming units (CFU) were counted to determine the MIC and MBC of each PNA-CPP derivative against MRSA.
as §2, with “Vancomycin and Oxacillin were used as controls.” left out

[3] = system: S. aureus (ATCC BAA-1556); experiment: Murine thigh infection model; assay type: in vivo; settings: neutropenic CD-1 mice; 25 mg/kg, 0.2 ml SC, +1 hr; 24 hrs
Procedure: Female 5-6 week old CD-1 (18-22 gm) were used in this study. Mice were quarantined for 48 hours before use and housed in groups of 5 with free access to food and water during the study.
The animals were made neutropenic by administration of cyclophosphamide on Days −4 and −1. On Days −4 150 mg/kg of cyclohsphamide administered by intraperitoneal route and 100 mg/kg was administered on Days −1. Days listed are referenced from the date of infection (study day-Day 0).
On Day 0, animals were inoculated intramuscularly (0.1 ml/thigh) with ˜1×10^5 CFU/mouse of S. aureus (ATCC BAA-1556) into right thigh. […] Group-3 of mice were administered with vancomycin at 25 mg/kg via subcutaneous route. Group-4 of mice administered with buffer and group-5 used as the inoculation control.
Mice were euthanized by CO2 inhalation and thighs were removed, and placed in 2 ml of sterile PBS, homogenized, serially diluted and plated to determine the CFU counts. Plates were incubated 18-24 hours and CFUs were counted.
Colony were counted and the number of colonies is converted to CFU/thigh by multiplying the number of colonies by the volume of the thigh homogenate spotted and the dilution at which the colonies were counted (5-50 colonies/spot). All count data were transformed into logo CFU/thigh for calculation of means and standard deviations.

[4] = Single ascending intravenous dose tolerability (MTD) in mice; assay type: in vivo; settings: 10 mg/kg single intravenous bolus dose
Procedure: Single ascending intravenous (IV) dose study was performed to determine tolerability of the drug in mice.
Initially, Compound I-HCl and Compound IV-HCl were administered with a 10 mg/kg intravenous bolus dose using a 10 mL/kg dose volume (0.2 mL) and observed the effects before proceeding to the next higher dose. […] However, higher concentration (>15 mg/kg) had shown adverse effect and death in mice within 30 mins of administration of the drug.

MSSA = experiment: In vitro assay of emergence of resistance, MSSA, 8 days; assay type: cell-based, S. aureus; settings: 6.25 μg (twice MBC) in one ml Mueller Hinton broth, 37° C., through Day 8
Procedure: (§4) To determine the development of resistance in MRSA and MSSA strains against Compound I-HCl and Compound IV-HCl, an in vitro assay was performed. Twice the amount of MBC of Compound I-HCl (6.25 μg) and Compound IV-HCl (6.25 μg) were mixed with ˜5.0 log 10 CFUs in one ml of Mueller Hinton broth and incubated for 8 days at 37° C. Eight tubes of culture were used for each drug and bacterial strains. At 24 hours of interval, culture tubes were centrifuged and spent media were replaced with fresh media in presence of Compound I-HCl and Compound IV-HCl and further incubated to observe the growth of S. aureus strains. At 24 hours interval, one set of culture tube exposed to drugs were selected and a fraction of the culture used to plate on agar plates to observe the reduction of CFU counts as compared to untreated control. The rest of the culture samples were allowed to grow without any drug for additional 24 hours to observe the growth of S. aureus strains. One set of culture tubes without drug was used as the positive control.
The assays above were also performed using MSSA strains and Compounds I and IV.

MRSA = experiment: In vitro assay of emergence of resistance, MRSA, 8 days; assay type: cell-based, S. aureus; settings: 6.25 μg (twice MBC) in one ml Mueller Hinton broth, 37° C., through Day 8
Procedure: as §4

S. aureus MRSA strains = experiment: Bioscreen-C dose response growth curve of MRSA over 24 hours; assay type: cell-based, Staphylococcus aureus; settings: HCl salts, doses from 100 μg downwards, 10 mM sodium bicarbonate buffer pH-7.4, OD 420-580 nm
Procedure: as §3
Compound I-V were assayed against MRSA. FIG. 6-10 show a dose response growth curve of MRSA in presence of increasing concentrations of Compound I-HCl (FIG. 6), Compound II-HCl (FIG. 7), Compound III-HCl (FIG. 8), Compound IV-HCl (FIG. 9), and Compound V-HCl (FIG. 10), determined in a Bioscreen-C spectrophotometer.

[5] = MSSA table, isolate MRSA#16 [sic]
[6] = MSSA table, isolate MRSA#25 [sic]
[7] = MSSA table, isolate MRSA#27 [sic]
[8] = MSSA table, isolate MRSA#34 [sic]
[9] = MSSA table, isolate MRSA#38 [sic]
[10] = MSSA table, isolate MRSA#57 [sic]
[11] = MSSA table, isolate MRSA#60 [sic]
[12] = MSSA table, isolate printed MRSA#49
[13] = MSSA table, isolate printed MRSA#61

## Compound II: PNA-CPP conjugate: PNA SEQ ID NO: 51, AEA linker, CPP BXRXRRXRRXRRXR; FIG. 2 (CGTCATACGCGGTCC; all peptide nucleic acid (PNA); PNA conjugated to cell-penetrating peptide BXRXRRXRRXRRXR via AEA linker, end not given here)
S. aureus MSSA strains
  lowest dose at which no MSSA growth was observed (growth curve): 6.25 µg
[1]; [5]
  MBC: 3.25 ∞g
  MIC: 1.56 ∞g
[1]; [6]
  MBC: 3.25/3.25 ∞g
  MIC: 3.25/3.25 ∞g
[1]; [7]
  MBC: 1.56 ∞g
  MIC: 0.78 ∞g
[1]; [8]
  MBC: 3.25/3.25 ∞g
  MIC: 3.25/3.25 ∞g
[1]; [9]
  MBC: 3.25/3.25 ∞g
  MIC: 3.25/3.25 ∞g
[1]; MSSA table, isolate MRSA#55
  MBC: 3.25/3.25 ∞g
  MIC: 3.25/3.25 ∞g
[1]; [10]
  MBC: 3.25 ∞g
  MIC: 1.56 ∞g
[1]; [11]
  MBC: 1.56 ∞g
  MIC: 0.78 ∞g
[1]; [12]
  MBC: 3.25/3.25 ∞g
  MIC: 3.25/3.25 ∞g
[1]; [13]
  MBC: 1.56 ∞g
  MIC: 0.78 ∞g
[1]; strain BAA 1721
  MBC: 1.56 ∞g
  MIC: 0.78 ∞g
[2]; isolate MRSA#1
  MBC: 3.25
  MIC: 1.56
[2]; isolate MRSA#3
  MBC: 3.25
  MIC: 1.56
[2]; isolate MRSA#6
  MBC: 3.25
  MIC: 1.56
[2]; isolate MRSA#15
  MBC: 3.25
  MIC: 1.56
[2]; isolate MRSA#28
  MBC: 3.25
  MIC: 1.56
[2]; isolate MRSA#31
  MBC: 3.25
  MIC: 1.56
[2]; isolate MRSA#37
  MBC: 1.56
  MIC: 0.78
[2]; isolate MRSA#39
  MBC: 3.25
  MIC: 1.56
[2]; isolate MRSA#42
  MBC: 1.56
  MIC: 0.78
[2]; isolate MRSA#43
  MBC: 1.56
  MIC: 0.78
[2]; strain USA 300
  MBC: 1.56
  MIC: 0.78

## CN[C@H](CC(C)C)C(=O)N[C@H]1C(=O)N[C@@H](CC(N)=O)C(=O)N[C@H]2C(=O)N[C@H]3C(=O)N[C@H](C(=O)N[C@H](C(=O)O)c4cc(O)cc(O)c4-c4cc3ccc4O)[C@H](O)c3ccc(c(Cl)c3)Oc3cc2cc(c3O[C@@H]2O[C@H](CO)[C@@H](O)[C@H](O)[C@H]2O[C@H]2C[C@](C)(N)[C@H](O)[C@H](C)O2)Oc2ccc(cc2Cl)[C@H]1O [Vancomycin, reference compound]
[3]
  Mean Log 10 CFU/Thigh: 4.39 Log 10 CFU/Thigh
  Mean Log 10 Change vs. 1 hr: −1.23 Log 10
  Mean Log 10 Change vs. 24 hr (vehicle): −4.14 Log 10
[1]; [5]
  MIC: 5 ∞g
[1]; [6]
  MIC: 10 ∞g
[1]; [7]
  MIC: 10 ∞g
[1]; [8]
  MIC: 5 ∞g
[1]; [9]
  MIC: 10 ∞g
[1]; MSSA table, isolate MRSA#55
  MIC: 10 ∞g
[1]; [10]
  MIC: 20 ∞g
[1]; [11]
  MIC: 10 ∞g
[1]; [12]
  MIC: 10 ∞g
[1]; [13]
  MIC: 5 ∞g
[1]; strain BAA 1721
  MIC: 10 ∞g

## Compound IV: PNA-CPP conjugate: PNA SEQ ID NO: 51, AEEA linker, homo-arginine CPP BXhRXhRhRXhRhRXhRhRXhR; FIG. 4 (CGTCATACGCGGTCC; all peptide nucleic acid (PNA); homo-arginine cell-penetrating peptide attached via AEEA linker, further chemistry not fully specified)
S. aureus MSSA strains
  lowest dose at which no MSSA growth was observed (growth curve): 6.25 µg
[4]
  tolerability in mice: well tolerated
MSSA
  MSSA CFU counts and emergence of resistant strains: reduced MSSA CFUs without emergence of resistant strains
MRSA
  MRSA CFU counts and emergence of resistant strains: reduced MRSA CFUs without emergence of resistant strains

## Compound III: PNA-CPP conjugate: PNA SEQ ID NO: 51, Glycine-Glycine linker, CPP BXRXRRXRRXRRXR; FIG. 3 (CGTCATACGCGGTCC; all peptide nucleic acid (PNA); PNA conjugated to cell-penetrating peptide via glycine-glycine linker, end not given here, further chemistry not fully specified)
S. aureus MSSA strains
  lowest dose at which no MSSA growth was observed (growth curve): 25 µg
S. aureus MRSA strains
  lowest dose at which no MRSA growth was observed (growth curve): 12.5 µg

## Compound V: PNA-CPP conjugate: PNA SEQ ID NO: 51, AEEA linker, D-arginine CPP BXdRXdRdRXdRdRXdRdRXdR; FIG. 5 (CGTCATACGCGGTCC; all peptide nucleic acid (PNA); PNA conjugated to D-arginine cell-penetrating peptide via AEEA linker, end not given here, further chemistry not fully specified)
S. aureus MSSA strains
  lowest dose at which no MSSA growth was observed (growth curve): 25 µg

## Cc1onc(-c2ccccc2)c1C(=O)N[C@@H]1C(=O)N2[C@@H]1SC(C)(C)[C@@H]2C(=O)O [Oxacillin, reference compound]
[1]; [5]
  MIC: 2 ∞g
[1]; [6]
  MIC: 2 ∞g
[1]; [7]
  MIC: 2 ∞g
[1]; [8]
  MIC: 2 ∞g
[1]; [9]
  MIC: 2 ∞g
[1]; MSSA table, isolate MRSA#55
  MIC: 2 ∞g
[1]; [10]
  MIC: 4 ∞g
[1]; [11]
  MIC: 2 ∞g
[1]; [12]
  MIC: 2 ∞g
[1]; [13]
  MIC: 2 ∞g
[1]; strain BAA 1721
  MIC: <2 ∞g
